From patent US12564650B2, “Carbonic anhydrase IX-targeting radioactive diagnostic and therapeutic medicament and method for preparing same” (NORROY BIOSCIENCE CO., LTD., priority 2022, dated 2026) come the findings set out here.

The test system of the assay is 786-O tumor (human renal clear cell adenocarcinoma cells). As to the kind of experiment: Competitive inhibition assay in 786-O mouse model. The conditions noted are these: cold medicament 40 times the mass of hot medicament, 30 minutes before; scan 1 hour. Format: in vivo, NOD-SCID mice. The source says:
The experimental 786-O animal model was provided by Biaodu Baiao Biotechnology (Shanghai) Co., Ltd. The model was a 786-O tumor subcutaneous heterotopic transplant tumor model established based on NOD-SCID mice. This model was a mouse model constructed for human renal clear cell adenocarcinoma cells. Two animal models were randomly selected and injected with cold medicament NYM0005 through tail vein. The injection dose was 40 times the mass of the injected hot medicament (^68Ga-NYM0005). The order of administration was as follow: injecting the hot medicament ^68Ga-NYM0005 30 minutes after the administration of the cold medicament. After pre-anesthesia with an appropriate concentration of isoflurane/oxygen mixed gas prior to scanning, the animals were placed in a MicroPET/CT imaging cabin (SNPC-303 SuperNova, Pingsheng Medical Technology (Kunshan) Co., Ltd.), and anesthesia was maintained with isoflurane/air mixed gas. A MicroPET/CT scan was performed 1 hour after the administration of the hot medicament. The scanned images were obtained after reconstruction by means of the device software, and the scanned images were analyzed using PMOD software.

Take `NS(=O)(=O)c1nnc(NC(=O)CCCc2cn(CCCCC(=O)N[C@@H](CC(=O)O)C(=O)NCCCCNC(=O)CN3CCN(CC(=O)O)CCN(CC(=O)O)CC3)nn2)s1` [NYM005]: the “blocking of 68Ga-NYM005 uptake of the tumor by cold medicament” value is reported as “significantly block”.
